Values quoted from earlier work, collected in paper PMC5131915, “Platinum(II) Iodido Complexes of 7-Azaindoles with Significant Antiproliferative Effects: An Old Story Revisited with Unexpected Outcomes” (PLoS ONE, 2016).

Key:
Conditions in all cases: cited from earlier work
HeLa cells = system: HeLa cells; design: method as in PMID 22225466
[1] = system: HT29 colon carcinoma cells
[2] = system: HCT116 colon carcinoma cells
[3] = system: A2780, T-47D human breast carcinoma and WiDr human colon carcinoma cell lines; design: method as in PMID 24900222

C[NH+](C)[Pt-2]([I])([I])[NH+](C)C [trans-[PtI2(L1)2]]
factor by which activity of cisplatin is exceeded (HeLa cells): ~6

O=C1[O][Pt]2([NH][C@@H]3CCCC[C@H]3[NH]2)[O]C1=O [oxaliplatin]
IC50 [1]: 700 nM
IC50 [2]: 300 nM

CC(C)N.CC(C)N.[I][Pt][I] [cis-[PtI2(ipam)2]]
times more potent than cisplatin [3]: ≤ 11 times
